Patent US9725490B2, “ERAP1-derived peptide and use thereof” (TOKUSHIMA UNIVERSITY, priority 2011, dated 2017)
Where a SMILES comes first, the peptide text is derived from it. The star is where a group is joined. Cbz = O=C(OCc1ccccc1)*

How the values were obtained:
[1] = tested on: transcriptional activity of ERα (ERE); assay: ERE-luciferase reporter assay in MCF-7 cells; type: cell-based, human; details: 10 nM E2 24 hours
Method: FIG. 3-2 is a diagram illustrating promotion effect of PHB2 nuclear translocation and suppression effect of the transcriptional activation of ER by ERAP1-peptide treatment. (C) illustrates representative images of stained immune cells, showing the localization of the ERAP1-peptide (HA-tagged ERAP1-peptide) and PHB2. MCF-7 cells were treated with 10 μM HA-tagged ERAP1-peptide for 24 hours in the presence or in the absence of 10 nM E2. After the immobilization, the cells were subjected to immunonfluorescent staining using an anti-HA antibody, an anti-PHB2 antibody and DAPI (for discriminating the nucleus). The arrow indicates the nuclear-translocated ERAP1-peptide. […] Then, immediately, the cells were stimulated with 10 nM E2 for 24 hours. TAM indicates the tamoxifen treatment.
(§1) FIG. 3-3 is as diagram illustrating the results of the luciferase assay by which the inhibition effect of the ERAP1-peptide was evaluated. MCF-7 cells temporarily transfected with an ERE-luciferase reporter vector (F) or an AP-1-luciferase reporter vector (F) were treated with the ERAP1-peptide, the scramble peptide or the mutant peptide in the concentrations shown in the […]. Then, immediately, the cells were stimulated with 10 nM E2 for 24 hours. TAM indicates the tamoxifen treatment.
(§2) FIG. 4-3 is a diagram illustrating that the ERAP1-peptide promotes nuclear translocation of PHB2. (C) and (D) are figures that show the results of the luciferase assay by which the inhibition effect of the ERAP1-peptide on the ERα transcriptional activity was evaluated. MCF-7 cells temporarily transfected with an ERE-luciferase reporter vector (C) or an AP-1-luciferase reporter vector (D) were treated with the ERAP1-peptide in the concentrations shown in the figure or 10 nM tamoxifen. Then, immediately, the cells were stimulated with 10 nM E2 thr 24 hours.
(§3) For ERE reporter assay, MCF-7 cells were transfected with ERE reporter (SABiosciences, Frederick, Md., USA) in accordance with the instruction of the manufacturer. For AP-1 reporter assay, MCF-7 cells were transfected with AP-1 reporter (mouse IL-11 promoter comprising two tandem AP-1 sites subcloned into PGL2-basic vector), c-fos, c-Jun and pRL-TK as an internal standard. After 16 hours from the transfection, the culture medium was exchanged with an assay culture medium (Opti-MEM, 10% FBS, 0.1 mM NEAA, 0.1 mM Sodium pyruvate and 10 μg/ml insulin) After 24 hours from the transfection, the cells were treated with E2 and/or the ERAP1-peptide or 24 hours. The cells were harvested, and the activities of luciferase and Renilla-luciferase were evaluated using Promega dual luciferase reporter assay (Tokyo, Japan). In consideration of the transfection efficiency, all of the data were standardized by the activity of Renilla-luciferase.

[2] = tested on: transcriptional activity of ERα (AP-1); assay: AP-1-luciferase reporter assay in MCF-7 cells; type: cell-based, human; details: 10 nM E2 24 hours
Method: as §1, §2, §3

[3] = molecular target: T1, binding of inherent ERAP1 and inherent PHB2/REA (Homo sapiens, UniProt Q99623); assay: Inhibition of ERAP1-PHB2/REA binding in cells, immunoprecipitation-Western blotting; type: cell-based; details: MCF-7 and KPL-3C cells; 10 μM peptide; 10 nM E2 24 hours
T1 construct: endogenous in cells; host or cells: MCF-7 and KPL-3C breast cancer cells

ERα = ERα down-regulation and polyubiquitination in MCF-7 cells; type: cell-based, human; details: MCF-7, E2 in the presence of MG132, no peptide
Method: FIG. 4-5 is a diagram illustrating that the ERAP1-peptide promotes nuclear translocation of PHB2. […] Then, the protein level and the mRNA level for the expression of ERα were obtained by Western blotting (the upper panel: Protein) and semi-quantitative RT-PCR (the lower panel: mRNA), respectively. β-actin is a loading control for each. […] MCF-7 cells were treated with the ERAP1-peptide and/or E2 in the presence of 1 μM MG-132 for 1 hour. Then, the cell lysate was immunoprecipitated with anti-ERα antibody.
Down-regulation of ERα was evaluated by semi-quantitative reverse transcription PCR. Complete RNA was extracted using RNeasy Mini purification kit (Qiagen) from E2-treated cells in the presence or in the absence of the ERAP1 peptide, and reverse-transcribed into cDNA using Superscript II reverse transcriptase (Invitrogen), oligo dT primer (nvitrogen) and 25 mM dNTP Mixture (Invitrogen). mRNAs of ERα and β-actin were measured with GeneAmp PCR system (Applied Biosystems, Foster, Calif., USA). The primers are as described below: […]

[4] = tested on: phosphorylation of ERAP1 and PHB2/REA; assay: PKA inhibition by H-89, immunoblotting of ERAP1 and PHB2/REA phosphorylation, MCF-7; type: cell-based, human
Method: Then, the cell lysate solution was immunoprecipitated with anti-ERAP1 antibody. Furthermore, the phosphatase activity of the obtained sample was calculated. […] MCF-7 cells suppressed for expression of PKA or PKB, or both of PKA and PKB by siRNA method, were treated with 10 μM ERAP1 peptide. Then, immediately, the cells were stimulated with 10 nM E2 for 24 hours. […] MCF-7 cells were treated with H-89 for 30 minutes and washed with PBS. Then, the cells were treated with 10 μM ERAP1-PEPTIDE. Then, immediately, the cells were stimulated with 10 nM E2 for 24 hours. […] (S39) is caused. MCF-7 cells suppressed for expression of PKA by siRNA method, were stimulated with 10 nM E2 for 24 hours. In addition, MCF-7 cells were treated with H-89 for 30 minutes and washed with PBS. Then, immediately, the cells were stimulated with 10 nM E2 for 24 hours. […] Then, immediately, the cells were stimulated with 10 nM E2 for 24 hours. […] MCF-7 cells suppressed for expression of PKCα by siRNA method were treated with 10 μM ERAP1 peptide. Then, immediately, the cells were stimulated with 10 nM E2 for 24 hours. The cells were fractionated into cytoplasm and nuclear fractions by specific gravity centrifugation.

MCF-7 cells = assay: E2-dependent cell proliferation assay (MTT/CCK-8), MCF-7; type: cell-based, human; details: 10 nM E2, up to 24 hours
Method: FIG. 6-1 is a diagram illustrating that ERAP1-peptide treatment suppresses ERα-dependent cell proliferation of breast cancer cell lines. (A) and (B) show the results of MTT assay by which the inhibition effect of the ERAP1-peptide in the E2-dependent cell proliferation was evaluated. MCF-7 cells were treated with the ERAP1-peptide (A, B) the ERAP1-scramble peptide (B) or the ERAP1-mutant peptide (B).
FIG. 7-1 is a diagram illustrating that ERAP1-peptide treatment suppresses ERα-dependent cell proliferation of breast cancer cell lines. […] KPL-3C cells were treated with the ERAP1-peptide, the scramble peptide or the mutant peptide. Then, immediately, the cells were stimulated with 10 nM E2 for 24 hours. […] Then, immediately, the cells were stimulated with 10 nM E2. Then, the ERAP1-peptide was added every day for […]. […] The arrow indicates addition of the ERAP1-peptide.
FIG. 7-3 is a diagram illustrating that ERAP1-peptide treatment suppresses ERα-dependent cell proliferation of breast cancer cell lines. […] MCF-7 cells were treated with 10 μM ERAP1-peptide. Then, immediately, the cells were stimulated with 10 nM E2 (white square). Then, 10 μM ERAP1-peptide was added every day for four days (black square).
FIG. 20 is a diagram illustrating the results of evaluations for the influence of the difference of the sequence on E2-dependent cell proliferation suppression effect. […] Then, immediately, the cells were stimulated with E2 for 24 hours.
MCF-7 cells were suspended in MEM (Invitrogen, Carlsbad, Calif., USA) reinforced with 10% FBS (Nichirei Biosciences, Tokyo, Japan), 1% antibiotic/antimycotic solution (Invitrogen), 0.1 mM NEAA (Tnvitrogen), 1 mM sodium pyruvate and 10 μg/ml insulin (Sigma, St. Louis, Mo., USA). Then, the cell suspension was seeded in a 48-well plate (2×10^4 cells/200 μl), a 24-well plate (1×10^5 cells/1 ml), a 6-well plate (5×10^5 cells/2 ml) or 10 cm dish (2×10^6 cells/10 ml). The cells were maintained at 37° C. in humidified atmosphere containing 5% carbon dioxide. On the next day of the seeding, the culture medium was exchanged with phenol red-free DMEM/F12 (Invitrogen) reinforced with FBS, an antibiotic/antimycotic solution, NEAA, sodium pyruvate and insulin. After 24 hours, the cells were treated with 10 nM 17β estradiol (E2, Sigma). The ERAP-1 peptide was added just before the E2 stimulation in the inhibition test.
Using Cell-Counting Kit-8 (CCK-8, Dojindo, Kumamoto, Japan), the cell proliferation assay was performed. […] Then, the absorbance at 450 nm was measured and the number of living cells in each well was calculated.
The cell proliferation assay was evaluated using Cell-Counting Kit-8 (CCK-8, Dojindo, Kumamoto, Japan). […] Then, 100 μl from each well was moved to a 96-well plate, and the absorbance at 450 nm was measured with a microplate reader.

[5] = H-89 30 minutes, then E2 24 hours
[6] = comparison with siPKA, increasing dose of H-89

T1 sequence (Q99623 2-299 limits assumed): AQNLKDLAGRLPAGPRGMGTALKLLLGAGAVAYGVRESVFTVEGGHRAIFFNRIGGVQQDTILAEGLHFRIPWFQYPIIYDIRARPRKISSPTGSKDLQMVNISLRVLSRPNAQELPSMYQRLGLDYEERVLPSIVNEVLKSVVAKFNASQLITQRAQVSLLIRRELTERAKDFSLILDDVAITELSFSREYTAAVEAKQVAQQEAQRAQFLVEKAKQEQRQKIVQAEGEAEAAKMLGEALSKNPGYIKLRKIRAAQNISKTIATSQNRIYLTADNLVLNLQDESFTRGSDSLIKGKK

AMLSALTLALRQR (SEQ ID NO: 29) (ERAP1-mutant peptide)
transcriptional activity of ERα in ERE [1]: no change was recognized | transcriptional activity of ERα in AP-1 [2]: no change was recognized | inhibition of the binding of inherent ERAP1 and inherent PHB2/REA [3]: not recognized in any of the cells

CC(C)C[C@@H](C=O)NC(=O)[C@H](CC(C)C)NC(=O)[C@H](CC(C)C)NC(=O)OCc1ccccc1 [MG132, reference compound] (Cbz-Leu-Leu-Leu-aldehyde)
protein decrease and polyubiquitination of ERα with E2 (ERα): the protein decrease of ERα was suppressed and polyubiquitination of ERα was recognized

O=S(=O)(NCCNC/C=C/c1ccc(Br)cc1)c1cccc2cnccc12 [H-89]
phosphorylation of the threonine residue of ERAP1 [4, 5]: decreased in dose-dependent manner | phosphorylations of the serine and tyrosine residues of ERAP1 [4, 5]: remarkably decreased at 0.5 μM | Ser39 phosphorylation of PHB2/REA after E2 treatment [4, 6]: as the dose of H-89 increased, Ser39 phosphorylation of PHB2/REA also decreased | phosphorylation of the serine residue of ERAP1 after E2 treatment [4, 6]: as the dose of H-89 increased, disappearance of the phosphorylation was confirmed | phosphorylation of Ser39 of PHB2/REA ([4]; stimulated by E2 and treated with H-89, no peptide): remarkable recovery was recognized | phosphorylation of Ser39 of PHB2/REA ([4]; with ERAP-peptide, 20 μM H-89): the phosphorylation completely disappeared

ATLSQMLSDLTLQ (SEQ ID NO: 30) (ERAP1 dominant negative peptide) [ERAP1-peptide-2, 161-173 amino acid residues of ERAP1]
E2-dependent cell proliferation (MCF-7 cells): suppressed the E2-dependent cell proliferation in dose-dependent manner
